Experimental data taken from patent publication US6242476A, “Leukotriene A4 hydrolase inhibitors” (Santen Pharmaceutical Co., Ltd., priority 1997, dated 2001).

Biological target: T1, LTA4 hydrolase (Cavia porcellus, UniProt P19602)
T1 construct: prepared by extracting from guinea pig lung without purification; from tissue; host or cells: lung of Hartley guinea pig
T1 sequence (P19602 1-611): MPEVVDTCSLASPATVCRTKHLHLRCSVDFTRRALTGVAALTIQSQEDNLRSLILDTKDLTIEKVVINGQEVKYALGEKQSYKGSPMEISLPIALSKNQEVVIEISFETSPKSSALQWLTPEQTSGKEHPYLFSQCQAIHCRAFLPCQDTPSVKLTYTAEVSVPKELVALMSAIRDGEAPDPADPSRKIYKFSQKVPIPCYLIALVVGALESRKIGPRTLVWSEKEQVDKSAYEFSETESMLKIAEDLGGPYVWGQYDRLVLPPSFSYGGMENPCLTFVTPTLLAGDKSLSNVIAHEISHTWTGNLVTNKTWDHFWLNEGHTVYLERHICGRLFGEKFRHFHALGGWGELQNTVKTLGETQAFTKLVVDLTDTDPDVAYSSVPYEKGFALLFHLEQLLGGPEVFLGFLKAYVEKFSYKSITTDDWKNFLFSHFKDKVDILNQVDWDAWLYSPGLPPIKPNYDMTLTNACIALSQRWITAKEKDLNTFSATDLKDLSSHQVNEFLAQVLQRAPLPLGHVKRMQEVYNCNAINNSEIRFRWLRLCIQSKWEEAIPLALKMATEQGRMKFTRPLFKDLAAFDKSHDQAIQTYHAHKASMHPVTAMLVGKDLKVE
Assay: Inhibition of LTA4 hydrolase: LTB4 produced from LTA4 by enzyme preparation from guinea pig lung (HPLC)
Type: biochemical
Conditions: guinea pig lung enzyme preparation 0.4-0.6 mg protein; HEPES 50 mM, pH 7.8; LTA4 63 μM; DTT 3 mM; 37° C., one minute; read-out: IC50 (concentration of the compounds required to inhibit LTA4 hydrolase activity by 50%)
Protocol: Izumi et al. had reported a method of measuring LTA4 hydrolase activity by measuring an amount of LTB4 produced by an enzymatic reaction using LTA4 as a substrate (Biochem. Biophys. Res. Commun., 135, 139-145 (1986)). Effects of the present compounds on LTA4 hydrolase were examined according to the method described in the literature.
An enzyme preparation used in this pharmacological test was prepared by extracting from guinea pig lung without purification according to the method of Izumi et al. (Biochem. Biophys. Res. Commun., 135, 139-145 (1986)) and the method of Evans et al. (Biochem. Biophys. Acta, 840, 43-50 (1985)). The experimental method is as follows:
Lungs were excised from a Hartley guinea pig (body weight: 330 g). The lungs were homogenized in phosphoric acid buffer (50 mM, pH 7.4, containing 1 mM ethylenediaminetetraacetic acid (EDTA) and 1 mM dithiothreitol (DTT) having weight three times that of the lungs under ice-cooling. The homogenate was centrifuged at low speed (800×g) for 20 minutes, centrifuged at high speed (10,000×g) for 20 minutes and ultracentrifuged (100,000×g) for 60 minutes to give a supernatant. The supernatant was brought to 40% saturation by adding a saturated aqueous ammonium sulfate solution (pH 7.0-7.2, containing 1 mM DTT) dropwise under ice-cooling and centrifuged at high speed (10,000×g) for 20 minutes. The resulting supernatant was brought to 70% saturation by adding a saturated aqueous ammonium sulfate solution (pH 7.0-7.2, containing 1 mM DTT) dropwise and centrifuged at high speed (10,000×g) for 20 minutes. The obtained pellet was dissolved in 2 ml of Tris-acetic acid buffer (20 mM, pH 7.8, containing 1 mM DTT) and dialyzed in 2 liters of the solution to give the enzyme preparation.
LTA4 used, which is the substrate, was prepared by hydrolyzing LTA4 methyl ester and dissolved in ethanol.
In order to examine effects of the test compounds on the enzyme preparation, reactions were performed under the following condition using mixed solutions consisting of the composition shown in Table 1. […]
HEPES buffer 50 mM, pH 7.8
Enzyme preparation 0.4-0.6 mg protein
DTT aqueous solution 3 mM
Test compounds 10^-8 -10^-3 M
The above-mentioned solution (50 μl) was incubated at 37° C. for one minute. To the reaction mixture was added 100 μl of a mixed liquid of acetonitrile-ethanol-acetic acid (150:50:3, volume ratio) under ice-cooling. The mixture was allowed to stand at -20° C. for 30 minutes and centrifuged at high speed (10,000×g) for five minutes to give a supernatant. An amount of LTB4 produced in the supernatant was measured by high-speed liquid chromatography.
The degree of the inhibitory effect of each test compound on LTA4 hydrolase is expressed by the inhibition rate calculated by the following equation. [formula]
A: amount of LTB4 formed in the absence of the test compound
B: amount of LTB4 formed in the presence of the test compound
The results are represented in concentration of the compounds required to inhibit LTA4 hydrolase activity by 50%, i.e., IC50.

Q: `CC(C)c1ccc(CS[C@@H]2C[C@@H](C(=O)O)N(C(=O)[C@H](C)CS)C2)cc1` [Compound d, (4R)-4-(4-isopropylbenzylthio)-1-[(2S)-3-mercapto-2-methylpropionyl]-L-proline] was tested. Which IC50 did it give?
A: Its IC50 is 290 nM.

Q: How did the IC50 turn out when `C[C@H](CS)C(=O)N1C[C@@H](SCc2ccc(C3CCCCC3)cc2)C[C@H]1C(=O)O` [Compound h, (4S)-4-(4-cyclohexylbenzylthio)-1-[(2S)-3-mercapto-2-methylpropionyl]-L-proline] was run?
A: Its IC50 is 34 nM.

Q: `Cc1ccccc1CS[C@H]1C[C@@H](C(=O)O)N(C(=O)[C@H](C)CS)C1` [Compound a, 1-[(2S)-3-mercapto-2-methylpropionyl]-(4S)-4-(2-methylbenzylthio)-L-proline] was tested. Which IC50 did it give?
A: The IC50 was 840 nM.

Q: How did the IC50 turn out when `CC(C)c1ccc(CS[C@H]2C[C@@H](C(=O)O)N(C(=O)[C@H](C)CS)C2)cc1` [Compound b, (4S)-4-(4-isopropylbenzylthio)-1-[(2S)-3-mercapto-2-methylpropionyl]-L-proline] was run?
A: Its IC50 is 52 nM.

Q: With `CSc1ccc(CS[C@H]2C[C@@H](C(=O)O)N(C(=O)[C@H](C)CS)C2)cc1` [Compound g, 1-[(2S)-3-mercapto-2-methylpropionyl]-(4S)-4-[4-(methylthio)benzylthio]-L-proline] as the compound, how does the IC50 read?
A: Its IC50 is 120 nM.

Q: Which IC50 does the source give for `CC(C)c1ccc(CO[C@@H]2C[C@@H](C(=O)O)N(C(=O)[C@H](C)CS)C2)cc1` [Compound e, (4R)-4-(4-isopropylbenzyloxy)-1-[(2S)-3-mercapto-2-methylpropionyl]-L-proline] here?
A: Its IC50 is 800 nM.

Q: With `CCCCc1ccc(CS[C@H]2C[C@@H](C(=O)O)N(C(=O)[C@H](C)CS)C2)cc1` [Compound f, (4S)-4-(4-butylbenzylthio)-1-[(2S)-3-mercapto-2-methylpropionyl]-L-proline] as the compound, how does the IC50 read?
A: The IC50 was 31 nM.

Q: With `CC(C)c1ccc(CCS[C@H]2C[C@@H](C(=O)O)N(C(=O)[C@H](C)CS)C2)cc1` [Compound c, (4S)-4-(4-isopropylphenyethylthio)-1-[(2S)-3-mercapto-2-methylpropionyl]-L-proline] as the compound, how does the IC50 read?
A: Its IC50 is 790 nM.
